Measurements published in US12280072B2, “Oligosaccharide compound for inhibiting intrinsic coagulation factor X-enzyme complex, and preparation method therefor and uses thereof” (Jiuzhitang Co., Ltd., priority 2017, dated 2025).
pIC50: −log10 of the molar value. Where two headings read alike, the source gives them in different places.

Key:
Format in all cases: biochemical
FXa (Homo sapiens) = biological target: T1, FXa (Homo sapiens); test: AT-dependent Xa inhibitory activity assay
T1 construct: 8 μg/mL FXa solution; purchased
T1 sequence (P01008 33-464): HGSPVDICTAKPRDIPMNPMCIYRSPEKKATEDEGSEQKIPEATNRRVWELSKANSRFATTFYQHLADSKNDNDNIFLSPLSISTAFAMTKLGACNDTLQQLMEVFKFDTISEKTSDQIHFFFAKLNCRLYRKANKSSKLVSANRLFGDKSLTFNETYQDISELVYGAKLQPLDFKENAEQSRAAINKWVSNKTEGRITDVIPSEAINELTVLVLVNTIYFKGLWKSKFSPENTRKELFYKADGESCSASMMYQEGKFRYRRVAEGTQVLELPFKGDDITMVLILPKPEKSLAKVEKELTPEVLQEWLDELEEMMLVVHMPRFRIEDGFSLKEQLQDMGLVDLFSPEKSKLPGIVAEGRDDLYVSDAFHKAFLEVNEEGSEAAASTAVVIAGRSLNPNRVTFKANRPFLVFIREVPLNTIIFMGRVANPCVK
Description: AT-dependent Xa inhibitory activity assay: Heparin […] kit was used for detection. To a 96-well plate, 30 μL of sample, control solution or Tris-HCl buffer (negative control) was added, then 30 μL of 1 IU/mL AT solution was added, mixed well and incubated at 37° C. for 1 min; and than 30 μL of 8 μg/mL FXa solution was added, mixed well and incubated at 37° C. for 1 min, then 30 μL of pre-warmed 1.25 mM Xa chromogenic substrate SXa-11 was added. OD405 was detected by a microplate reader.
(§1) Data processing: The average value of OD405 detected by the duplicated well was used as the detection value of the test sample and the reference of each concentration, and the slope of the linear fit between the detected value to the time value (the change rate of the absorbance value OD405/min) indicated enzymatic activity of coagulation factor. Taking the clotting factor activity of the negative control well as 100%, coagulation factor activity (percentage) in the presence of the test sample was calculated. The coagulation factor activity in the presence of the test sample was plotted against the concentration of the test sample, and fitted according to the following formula, to calculate the IC50 value: B=(IC50)^n/{(IC50)^n+[I]^n}
(§2) in the formula, B is the coagulation factor activity (percentage) in the presence of the test sample, [I] is the concentration of the test sample, IC50 is the half inhibitory concentration (concentration of the test sample required to inhibit 50% of the activity), and n is the Hill coefficient. • (4) Effect on surface activation and platelet activity: […]

FIIa (Homo sapiens) [1] = biological target: T2, FIIa (Homo sapiens); test: HC-II-dependent IIa inhibitory activity assay; details: in presence of HC-II; read-out: Drug concentration required to inhibit 50% of coagulation factor activity (IC50, ng/mL) Ha (HC-II) (converted)
T2 construct: antithrombin (i.e., active coagulation factor IIa)
Description: HC-II-dependent IIa inhibitory activity assay: 30 μL of sample, control solution or Tris-HCl buffer (negative control) was added, 30 μL of 1 μM HCII solution was added, and incubated at 37° C. for 2 min; and then 30 μL of 20 NIH/mL FIIa was added, and incubated at 37° C. for 1 min; and finally 30 μL of pre-warmed 4.5 mM FIIa chromogenic substrate CS-01 (38) was added. OD405 was detected by a microplate reader and the IC50 value of FIIa inhibition of each sample was calculated.
as §1, with “B=(IC50)^n/{(IC50)^n+[I]^n} […]” for “B=(IC50)^n/{(IC50)^n+[I]^n}”
T2 sequence (P05546 20-499): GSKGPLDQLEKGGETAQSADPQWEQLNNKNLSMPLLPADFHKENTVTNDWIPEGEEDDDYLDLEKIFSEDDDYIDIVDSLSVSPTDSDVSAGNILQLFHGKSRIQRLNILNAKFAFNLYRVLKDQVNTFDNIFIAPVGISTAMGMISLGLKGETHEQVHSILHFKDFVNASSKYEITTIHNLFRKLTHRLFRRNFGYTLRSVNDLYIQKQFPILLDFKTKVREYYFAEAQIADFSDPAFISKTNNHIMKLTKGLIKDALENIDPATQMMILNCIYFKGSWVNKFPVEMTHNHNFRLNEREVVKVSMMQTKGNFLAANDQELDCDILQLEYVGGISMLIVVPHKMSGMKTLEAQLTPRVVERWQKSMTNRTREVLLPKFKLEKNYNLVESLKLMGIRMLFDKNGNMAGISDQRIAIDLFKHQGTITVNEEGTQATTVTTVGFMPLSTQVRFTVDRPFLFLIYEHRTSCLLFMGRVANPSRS

FIIa (Homo sapiens) [2] = biological target: T3, FIIa (Homo sapiens); test: AT-dependent IIa inhibitory activity assay
T3 construct: antithrombin (i.e., active coagulation factor IIa); purchased
Description: AT-dependent IIa inhibitory activity assay: Heparin Anti-FIIa kit was used for detection. To a 96-well plate, 30 μL of sample, control solution or Tris-HCl buffer (negative control) was added, and then 30 μL of 1 IU/mL AT solution was added, mixed well by shaking the plate and incubated at 37° C. for 2 min; 30 μL of 24 IU/mL FIIa solution was added, mixed well by shaking the plate and incubated for 2 min at 37° C., and then 30 μL of pre-warmed 1.25 mM FIIa specific chromogenic substrate CS-01 (38) was added, mixed well by shaking the plate. The OD405 was detected by a microplate reader and the IC50 value of FIIa inhibition of each sample was calculated.
as §1, §2
T3 sequence (P01008 33-464): as the sequence (P01008 33-464) above

human-controlled plasma [3] = test: Anticoagulant activity assay: PT clotting time
Description: (§3) 8.2 Methods • (1) Preparation of sample solution: Oligosaccharide compounds A1˜A8, B1˜B11 and oligosaccharide mixtures C1, D1, D2 were all dissolved in Tris-HCl buffer and diluted to the desired series of solubility. • (2) Anticoagulant activity assay: 90 μL of human-controlled plasma was added to the sample or 10 μL of the control solution, and then the clotting time (APTT and PT) was detected by the MC-4000 coagulometer according to the method described in the APTT and PT kit instructions. • (3) Coagulation factor inhibitory activity analysis: […]

intrinsic factor Xase = biological target: T4, intrinsic factor Xase (Homo sapiens, UniProt P00740); test: Xase inhibitory activity assay; details: for IC50: read-out: Drug concentration required to inhibit 50% of coagulation factor activity (IC50, ng/mL) Xase (converted)
T4 construct: 60 nM FIXa; purchased
T4 sequence (P00740 47-191 limits assumed): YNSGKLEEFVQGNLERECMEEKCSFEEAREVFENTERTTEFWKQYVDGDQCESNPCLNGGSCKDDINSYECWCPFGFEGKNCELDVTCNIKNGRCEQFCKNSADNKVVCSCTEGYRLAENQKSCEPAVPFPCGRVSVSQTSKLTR
T4 sequence (P00740 227-461 limits assumed): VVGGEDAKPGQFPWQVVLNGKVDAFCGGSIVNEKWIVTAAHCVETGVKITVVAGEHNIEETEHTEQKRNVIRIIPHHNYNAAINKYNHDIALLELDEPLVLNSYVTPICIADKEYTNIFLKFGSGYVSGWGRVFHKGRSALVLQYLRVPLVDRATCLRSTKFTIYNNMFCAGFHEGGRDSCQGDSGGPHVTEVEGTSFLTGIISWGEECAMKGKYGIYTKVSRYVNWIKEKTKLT
Description: Xase inhibitory activity assay: Detection was performed according to kit instructions and literature methods by combining the Factor VIII and […]. Specifically, to each well of a 96-well plate, 30 μL of test solution, control solution, or Tris-HCl buffer (negative control) was added, and 30 μl of FVIII (2 IU/ml), 30 μl of R2 (60 nM FIXa, containing FIIa, PC/PS, Ca^2+) were sequentially added, mixed by shaking the plate, incubated at 37° C. for 2 min; and then 30 μL of R1 (50 nM FX, containing direct thrombin inhibitor) was added, mixed by shaking the plate, incubated at 37° C. for 1 min; and then 30 μL of R3 (FXa chromogenic substrate SXa-11, about 8.4 mM) was added. The absorbance at 405 nm (OD405) was detected with a microplate reader, continuously measuring for 7.5 min at a interval of 30 s. The Xase activity and IC50 value of Xase inhibition of the test sample were calculated based on the OD405 change value.
as §1, §2

plasma = test: TT (thrombin time) clotting time
human-controlled plasma [4] = test: Anticoagulant activity assay: APTT clotting time
Description: as §3

[5] = in presence of AT; read-out: Drug concentration required to inhibit 50% of coagulation factor activity (IC50, ng/mL) Xa (AT)
[6] = in presence of AT; read-out: Drug concentration required to inhibit 50% of coagulation factor activity (IC50, ng/mL) Ha (AT)

Row | pIC50 (FXa (Homo sapiens); [5]) | IC50 (FIIa (Homo sapiens) [1]) [µM] | pIC50 (FIIa (Homo sapiens) [2]; [6]) | IC50 (intrinsic factor Xase) [µM] | SMILES | Drug concentration required for multiplication of coagulation time (μg/mL) PT (human-controlled plasma [3]) | Drug concentration required for multiplication of coagulation time (μg/mL) TT (plasma) | Drug concentration required for multiplication of coagulation time (μg/mL) APTT (human-controlled plasma [4]) [µg/mL] | pIC50 (FXa (Homo sapiens); read-out: Drug concentration required to inhibit 50% of coagulation factor activity (IC50, ng/mL) Xa (AT); in presence of AT) | pIC50 (FIIa (Homo sapiens) [2]; read-out: Drug concentration required to inhibit 50% of coagulation factor activity (IC50, ng/mL) Ha (AT); in presence of AT) | pIC50 (intrinsic factor Xase; read-out: Drug concentration required to inhibit 50% of coagulation factor activity (IC50, ng/mL) Xase)
1 | < 5.42 | 0.53 | < 5.42 | 0.639 | CC(=O)N[C@H]1[C@H](O[C@@H]([C@H](O[C@@H]2O[C@@H](C)[C@@H](OS(=O)(=O)O)[C@@H](OS(=O)(=O)O)[C@@H]2O)[C@@H](O)CO)[C@H](O)C(=O)O)O[C@H](COS(=O)(=O)O)[C@H](OS(=O)(=O)O)[C@@H]1O[C@@H]1OC(C(=O)O)=C[C@H](O[C@@H]2O[C@@H](C)[C@@H](OS(=O)(=O)O)[C@@H](OS(=O)(=O)O)[C@@H]2O)[C@H]1O [Compound B1, L-Fuc3S4S-(α1,3)-L-ΔUA-(α1,3)-{D-GalNAc4S6S-(β1,4)-[L-Fuc3S4S-(α1,3)]-D-GlcA-(β1,3)}˜-D-GalNAc4S6S-(β1,4)-[L-Fuc3S4S-(α1,3)]-D-GlcA-ol] | # (>128 μg/mL) | # (>128 μg/mL) | 53.9 | – | – | –
2 | < 5.42 | 0.615 | < 5.42 | 1.26 | CC(=O)N[C@H]1[C@H](O[C@H]2[C@H](O[C@@H]3O[C@@H](C)[C@@H](OS(=O)(=O)O)[C@@H](OS(=O)(=O)O)[C@@H]3O)[C@@H](O)C(O)O[C@@H]2C(=O)O)O[C@H](COS(=O)(=O)O)[C@H](OS(=O)(=O)O)[C@@H]1O[C@@H]1OC(C(=O)O)=C[C@H](O[C@@H]2O[C@@H](C)[C@@H](OS(=O)(=O)O)[C@@H](OS(=O)(=O)O)[C@@H]2O)[C@H]1O (stereo partly drawn) [Compound B6, L-Fuc3S4S-(α1,3)-L-ΔUA-(α1,3)-{D-GaNAc4S6S-(β1,4)-[L-Fuc3S4S-(α1,3)]-D-GlcA-(β1,4)}˜-D-GalNAc4S6S-(β1,4)-[L-Fuc3S4S-(α1,3)]-D-GlcA] | # (>128 μg/mL) | # (>128 μg/mL) | 50.2 | – | – | –
3 | < 5.78 | – | < 5.78 | 0.0098 | CC(=O)NC1C(OC2C(C(=O)O)OC(OC3C(NC(C)=O)C(OC4C(C(=O)O)OC(OC5C(NC(C)=O)C(OC6C(C(=O)O)OC(O)C(O)C6OC6OC(C)C(OS(=O)(=O)O)C(OS(=O)(=O)O)C6O)OC(COS(=O)(=O)O)C5OS(=O)(=O)O)C(O)C4OC4OC(C)C(OS(=O)(=O)O)C(OS(=O)(=O)O)C4O)OC(COS(=O)(=O)O)C3OS(=O)(=O)O)C(O)C2OC2OC(C)C(OS(=O)(=O)O)C(OS(=O)(=O)O)C2O)OC(COS(=O)(=O)O)C(OS(=O)(=O)O)C1OC1OC(C(=O)O)=CC(OC2OC(C)C(OS(=O)(=O)O)C(OS(=O)(=O)O)C2O)C1O [Compound B8, L-Fuc3S4S-(α1,3)-L-ΔUA-(α1,3)-{D-GaNAc4S6S-(β1,4)-[L-Fuc3S4S-(α1,3)]-D-GlcA-(β1,4)}˜-D-GalNAc4S6S-(β1,4)-[L-Fuc3S4S-(α1,3)]-D-GlcA] | # (>128 μg/mL) | # (>128 μg/mL) | 5.8 | – | – | –
4 | – | – | – | – | CC(=O)NC1C(OC2C(C(=O)O)OC(OC3C(NC(C)=O)C(OC4C(C(=O)O)OC(OC5C(NC(C)=O)C(OC6C(C(=O)O)OC(OC7C(NC(C)=O)C(OC8C(C(=O)O)OC(OC9C(NC(C)=O)C(OC(C(O)C(=O)O)C(OC%10OC(C)C(OS(=O)(=O)O)C(OS(=O)(=O)O)C%10O)C(O)CO)OC(COS(=O)(=O)O)C9OS(=O)(=O)O)C(O)C8OC8OC(C)C(OS(=O)(=O)O)C(OS(=O)(=O)O)C8O)OC(COS(=O)(=O)O)C7OS(=O)(=O)O)C(O)C6OC6OC(C)C(OS(=O)(=O)O)C(OS(=O)(=O)O)C6O)OC(COS(=O)(=O)O)C5OS(=O)(=O)O)C(O)C4OC4OC(C)C(OS(=O)(=O)O)C(OS(=O)(=O)O)C4O)OC(COS(=O)(=O)O)C3OS(=O)(=O)O)C(O)C2OC2OC(C)C(OS(=O)(=O)O)C(OS(=O)(=O)O)C2O)OC(COS(=O)(=O)O)C(OS(=O)(=O)O)C1OC1OC(C(=O)O)=CC(OC2OC(C)C(OS(=O)(=O)O)C(OS(=O)(=O)O)C2O)C1O [Compound B5, L-Fuc3S4S-(α1,3)-L-ΔUA-(α1,3)-{D-GalNAc4S6S-(β1,4)-[L-Fuc3S4S-(α1,3)]-D-GlcA-(β1,3)}˜-D-GalNAc4S6S-(β1,4)-[L-Fuc3S4S-(α1,3)]-D-GlcA-ol] | # (>128 μg/mL) | # (>128 μg/mL) | 4.0 | < 5.97 | < 5.97 | 8.38
5 | < 5.64 | – | < 5.64 | 0.0295 | CC(=O)NC1C(OC2C(C(=O)O)OC(OC3C(NC(C)=O)C(OC(C(O)C(=O)O)C(OC4OC(C)C(OS(=O)(=O)O)C(OS(=O)(=O)O)C4O)C(O)CO)OC(COS(=O)(=O)O)C3OS(=O)(=O)O)C(O)C2OC2OC(C)C(OS(=O)(=O)O)C(OS(=O)(=O)O)C2O)OC(COS(=O)(=O)O)C(OS(=O)(=O)O)C1OC1OC(C(=O)O)=CC(OC2OC(C)C(OS(=O)(=O)O)C(OS(=O)(=O)O)C2O)C1O [Compound B2, L-Fuc3S4S-(α1,3)-L-ΔUA-(α1,3)-{D-GalNAc4S6S-(β1,4)-[L-Fuc3S4S-(α1,3)]-D-GlcA-(β1,3)}˜-D-GalNAc4S6S-(β1,4)-[L-Fuc3S4S-(α1,3)]-D-GlcA-ol] | # (>128 μg/mL) | # (>128 μg/mL) | 7.5 | – | – | –
